Test results as given in patent US20030012780A1, “Anti-inflammatory medicaments” (Karolinska Innovation AB, priority 1998, published 2003).

Columns and labels:
[1] = system: PAF-stimulated PMN locomotion in the rat mesentery; test: Intravital time lapse videomicroscopy of PMN locomotion in rat mesentery in vivo; details: PAF 10^-7 M
Method: Intravital time lapse videomicroscopy of PMN locomotion in vivo. PMN locomotion in rat mesenteric tissue was studied through use of intravital time lapse videomicroscopy according to the protocol previously described in detail (Werr et al., supra). In brief, Wistar rats (200-250 g) were anesthetized with equal parts of fluanison/fentanyl (10/0.2 mg/ml; Hypnorm; Janssen-Cilag Ltd., Saunderton, UK) and midazolam (5 mg/ml; Dormicum; Hoffman-La Roche, Basel, Switzerland) diluted 1:1 with sterile water (2 ml/kg i.m.). Body temperature was maintained at 37° C. by a heating pad connected to a rectal thermistor. After laparotomy, a segment of the ileum was exposed on a heated transparent pedestal to allow microscopic observation of the mesenteric microvasculature (Orthoplan microscope equipped with water immersion lens SW×25, NA 0.60; Leitz, Wetzlar, Germany). The microscopic image was televised and recorded on time lapse video (at 1/7 of normal speed). Analysis of leukocyte migration in the mesenteric tissue was made off line and the migration path of individual leukocytes was tracked with a digital image analyzer.
Leukocyte extravasation and migration was induced by soaking the exposed mesentery with 5 ml bicarbonate buffer solution (37° C.) containing PAF at a concentration of 10^−7 M. The tissue was then covered with a transparent plastic film to provide continues chemotactic stimulation by PAF. After 40 min of chemotactic stimulation, when numerous leukocytes had extravasated, time lapse recording of leukocyte migration was undertaken, first for 20 min to assess basal migration rates in response to PAF stimulation, and then for additional 40 min in the presence of PAF together with antibodies or peptides. The antibody concentration in the mixture administered to the tissue was for all antibodies 100 μg/ml. The peptide DGEA was similarly administered at a concentration of 25 mM and SLIDIP/RGDGW at a concentration of 500 μM. Due to dilution of the reagent in fluid covering the tissue these seemingly high doses, ˜10 times the documented effective blocking dose, were chosen in order to reach a sufficient concentration in proximity of the migrating leukocytes in the tissue. […] As previously documented, more than 85% of the migrating cells were neutrophils (Werr et al., supra).

[2] = system: fMLP-stimulated human PMN locomotion in collagen (type I) gels; test: PMN migration in gels of collagen (type I); assay type: cell-based; details: fMLP 10^-7 M; DGEA 5 mM; 30 min at 37° C.
Method: PMN migration in gels of collagen (type I) and gelatin. Gels were formed in 24-well culture dishes (250 μl/well) by mixing 8.5 volumes of rat collagen solution or bovine gelatin solution (Sigma) at a concentration of 1.5 mg/ml with 1 volume of ×10 MEM (Life Technologies, Gaithersburg, Md.) and 0.5 volume of 4.4% NaHCO3 and fMLP (final concentration 10^−7 M). Purified human PMN (0.5×106), suspended in 200 μl of MEM containing 10^−9 fMLP were placed on top of the gels and incubated with or without mAb:s or peptides for 30 min at 37° C. The final concentration was for all mAb:s 20 μg/ml, for DGEA 5 mM and for SLIDIP/RGDGW 100 μM. Four to six experiments were run in duplicate gels for each reagent tested and ten randomly chosen microscopic fields (with a defined area of 0.0625 mm) were analyzed in each gel. The migration of PMN into the gel was analyzed with an Leitz Orthoplan microscope equipped with a water immersion lens (Leitz UO×55W, NA 0.80) by focusing down through the gel. The calibrated micrometer scale in the fine focus adjustment was used to determine the migration distance of individual PMN from the upper gel surface. The average migration distance of the three leading cells in each field was calculated and defined as the migration distance of the leading front.

[3] = ten-fold higher concentrations of SLIDIP/RGDGW in some experiments

Substance	effect on PMN migration (in words) [1, 3]	effect on PMN migration (in words) ([1]; topical SLIDIP/RGDGW 500 μM)	migration distance of the leading front in collagen gels (in words) [2]	inhibition of PMN migration velocity ([1]; topical DGEA 25 mM, p<0.001)
ACRGDGWMCG	did not yield different effects	without effect	–	–
DGEA	–	–	to the level of non-stimulated cells	70±10%
SLIDIP	did not yield different effects	without effect	–	–
